From patent US6673931B2, “Naphthalenyl piperidines as renin inhibitors” (Hoffman-La Roche Inc., priority 1999, dated 2004)
Counter-ions that a name gives are not always drawn.

molecular target: T1, human renin (Homo sapiens, UniProt P00797); assay: In vitro test with pure human renin (angiotensin I production via RIA); format: biochemical; conditions: human tetradecapeptide renin substrate (hTD), pH 7.4, three hours at 37° C.
T1 sequence (P00797 67-406): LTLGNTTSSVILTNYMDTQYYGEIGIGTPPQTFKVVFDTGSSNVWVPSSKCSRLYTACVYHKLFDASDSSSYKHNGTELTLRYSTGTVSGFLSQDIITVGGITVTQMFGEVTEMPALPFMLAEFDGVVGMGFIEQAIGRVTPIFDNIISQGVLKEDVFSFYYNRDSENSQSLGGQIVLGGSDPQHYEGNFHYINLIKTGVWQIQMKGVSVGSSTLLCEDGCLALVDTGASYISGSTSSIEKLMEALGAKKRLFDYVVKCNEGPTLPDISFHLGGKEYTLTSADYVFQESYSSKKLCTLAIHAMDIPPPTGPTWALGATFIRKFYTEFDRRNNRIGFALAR
Procedure: The tests can be carried out in analogy to those described by D. T. Pals et al. in Hypertension Vol. 8, 1105-1112 (1986) or J. Boger et al. in J. Med. Chem. 28, 1779-1790 (1985) or J. F. Dellaria et al. in J. Med. Chem. 30,2137-2144 (1987) or T. Kokubu et al. in Biochem. Biophys. Res. Commun. 118, 929-933 (1984):
In vitro test with pure human renin:
The test is carried out in Eppendorf test tubes. The incubation mixture consists of (1) 100 μl of human renin in buffer A (0.1 M sodium phosphate solution, pH 7.4, containing 0.1% bovine serum albumin, 0.1% sodium azide and 1 mM ethylenediaminetetraacetic acid), sufficient for a renin activity of 2-3 ng of angiotensin I/ml/hr.; (2) 145 μl of buffer A: (3) 30 μl of 10 mM human tetradecapeptide renin substrate (hTD) in 10 mM hydrochloric acid: (4) 15 μl of dimethyl sulphoxide with or without inhibitor and (5) 10 μl of a 0.03 molar solution of hydroxyquinoline sulphate in water.
The samples are incubated for three hours at 37° C. and, respectively, 4° C. in triplicate. 2×100 μl samples per test tube are used in order to measure the production of angiotensin I via RIA (standard radioimmunoassay; clinical assay solid phase kit). Cross reactivities of the antibody used in the RIA are: angiotensin I 100%; angiotensin II 0.0013%; hTD (angiotensin I-Val-Ile-His-Ser-OH) 0.09%. The production of angiotensin I is determined by the difference between the test at 37° C. and that at 4° C.
The following controls are carried out:
(a) Incubation of hTD samples without renin and without inhibitor at 37° C. and 40° C. The difference between these two values gives the base value of the angiotensin I production.
(b) Incubation of hTD samples with renin, but without inhibitor at 37° C. and 4° C. The difference between these values gives the maximum value of the angiotensin I production.
In each sample the base value of the angiotensin I production is subtracted from the angiotensin I production which is determined. The difference between the maximum value and the base value gives the value of the maximum substrate hydrolysis (=100%) by renin.
The results are given as IC50 values which denote the concentration of the inhibitor at which the enzymatic activity is inhibited by 50%. The IC50 values are determined from a linear regression curve from a logit-log plot.

Structure (SMILES)	IC50 [nM]
COC[C@@H](O)CO[C@@H]1CNC[C@H](OCc2cc(OC)c3ccccc3c2)[C@H]1c1ccc(OCCCOCc2ccccc2OC)cc1 [A, (R)-1-methoxy-3-[(3S,4R,5R)-4-[4-[3-(2-methoxy-benzyloxy)-propoxy]-phenyl]-5-(4-methoxy-naphthalen-2-ylmethoxy)-piperidin-3-yloxy]-propan-2-ol]	0.06
COc1cc(CO[C@H]2CNC[C@@H](OC[C@H](O)CO)[C@@H]2c2ccc(OCCCOc3ccccc3[N+](=O)[O-])cc2)cc2ccccc12 [C, (R)-3-[(3S,4R,5R)-5-(4-methoxy-naphthalen-2-ylmethoxy)-4-[4-[3-(2-nitro-phenoxy)-propoxy]-phenyl]-piperidin-3-yloxy]-propane-1,2-diol]	0.08
COCCOC[C@@H](O)CO[C@@H]1CNC[C@H](OCc2cc(OC)c3ccccc3c2)[C@H]1c1ccc(OCCCOCc2ccccc2OC)cc1 [B, (R)-1-[(3S,4R,5R)-4-[4-[3-(2-methoxy-benzyloxy)-propoxy]-phenyl]-5-(4-methoxy-naphthalen-2-ylmethoxy)-piperidin-3-yloxy]-3-(2-methoxy-ethoxy)-propan-2-ol]	0.03

The remaining compounds from weak to strong by IC50, led by results:

IC50 [nM]	Structure (SMILES)
0.07	COc1ccccc1COCCCOc1ccc([C@H]2[C@H](Cn3ccnc3)CNC[C@@H]2OCc2cc(OC)c3ccccc3c2)cc1 [E, (3S,4R,5R)-3-imidazol-1-ylmethyl-4-[4-[3-(2-methoxy-benzyloxy)-propoxy]-phenyl]-5-(4-methoxy-naphthalen-2-ylmethoxy)-piperidine dihydrochloride]
0.02	COc1ccccc1COCCCOc1ccc([C@H]2[C@H](CO)CNC[C@@H]2OCc2cc(OC)c3ccccc3c2)cc1 [D, (3S,4R,5R)-[4-[4-[3-(2-methoxy-benzyloxy)-propoxy]-phenyl]-5-(4-methoxy-naphthalen-2-ylmethoxy)-piperidin-3-yl]-methanol]
